The conditions of data set [1]: for Rolling angle (basic angle of the cone): funnel with tube of 5 mm diameter, opening 10 cm above the level of the material. As for the experimental part:
The data given here were measured according to the following scheme:
The form to be tested was filled into a funnel provided with a tube of 5 mm diameter, then the funnel was set into a position so that its opening was 10 cm above the level of the material.

For data set [2] the following is noted: for Deformity ratio: ratio of longitudinal axis and greatest diameter, average of 250 grains. How it is done: (G) The Deformity Ratio of the Crystals
Deformity ratio means the ratio of the longitudinal axis and greatest diameter of the crystal.
The data were determined from the measurement of 250-250 grains by averaging.

A short description of another data set: physchem. To be noted: for solubility at 5 h: distilled water, water, Saturation solubility, 5 hours stirring, UV at 277 nm. As for the experimental part:
The investigation was made as follows: the different forms were stirred in distilled water for 5 hours, and the concentration of the material in solution was determined by ultraviolet spectroscopy at 277 nm wavelength.

For data set [3] the following is noted: 95:5 mixtures, water, 24 hours at 60° C. As for the experimental part: (I) Thermodynamic Stability
The test was made as follows: a mixture of the different forms in a ratio of 95:5 for both derivatives contaminated with the other polymorph was prepared, then the system was stirred with a magnetic stirrer for 24 hours at 60° C. so that water only covered the crystals. The crystals were then filtered and morphologically studied.

The conditions of data set [4]: for Electrostatic charging: amount of stuck material after knocking / Electrostatic charging: amount of stuck material without knocking: 37 g in glass dish of 120 mm, 1 minute rubbing; for Electrostatic charging: amount of stuck material after knocking: dish knocked 10 times. How it is done: (J) Electrostatic Charging
As there is no simple procedure to be carried out in an organic chemistry laboratory, the data presented below were measured as follows: Into a glass dish of 120 mm diameter 37 g of one of the forms were transferred and then the sample was stirred for 1 minute with rubbing with a flattened end glass-rod. Following this, the content of the dish was poured out without shaking, and the amount of stuck material was measured on a balance. Then the measurement was repeated so that the dish was knocked 10 times.

For data set [5] the following is noted: for Compaction ratio: with / without compaction; for Bulk density with compaction: hand-vibrator for 5 minutes.
For data set [6] the following is noted: 10 mg in 100 ml distilled water.
Experimental: The investigation was made as follows: 10-10 mg of the form to be tested were weighed into 100 ml of distilled water, under stirring. At appropriate times samples were taken from the system, and after filtration and appropriate dilution the amount of dissolved famotidine was determined by ultraviolet spectrophotometry.
For data set [7] the following is noted: medium with a pH lower than 3.
Another data set concerns histamine-H2 receptor. To be noted: well known; cited from earlier work.
The conditions of data set [8]: form "A" vs form "B".

SMILES strings stand for the structures. In brackets after ≈: the same amount, converted by molar mass.

A word on the solubility: it is how much of the substance goes into solution per volume. Higher therefore signals much dissolved substance. As to `NC(N)=Nc1nc(CSCCC(N)=NS(N)(=O)=O)cs1` [Form "B", N-sulfamoyl-3-(2-guanidino-thiazole-4-yl-methylthio)-propionamidine], the “Rolling angle (basic angle of the cone)” value in data set [1] was “more than 55 °”. Also, the “Slope of piled up sample at the beginning” value in data set [1] (rolling angle test, footnote x, correct rolling angle not measurable) was 80-85 °. For the same compound, the “Deformity ratio, times higher than form "A"” value in data set [2] (form "B" vs form "A") is listed as 3.3 times. Besides, the Deformity ratio in data set [2] was determined as 4.70. For the same compound, the solubility at 5 h in “physchem” (unit given as mg) worked out at 0.98 mg/mL (≈ 2900 µM). The “Saturation solubility, comparison in words” value in the data set “physchem” (form "B" vs form "A") is “significantly higher”. The Thermodynamic stability entry in data set [3] was “metastabile”. In addition, in data set [4], the “Electrostatic charging: amount of stuck material after knocking” value is listed as 10.0 g and the “Electrostatic charging: amount of stuck material without knocking” value was 13 g. Also, in data set [4] (form "B" vs form "A"), the “Electrostatic charging: amount attracted, times more than form "A"” value worked out at 20 times. Moreover, in data set [5], the Compaction ratio was found to be 1.47, the “Bulk density with compaction” value was 505 g/L and the “Bulk density without compaction” value came out at 340 g/L. In addition, in [6], the “Dynamic solubility at 2 min” value is 0.025 mg/mL, the “Dynamic solubility at 5 min” value was determined as 0.04 mg/mL, the “Dynamic solubility at 10 min” value stood at 0.051 mg/mL and the “Dynamic solubility at 1 hour” value was found to be 0.076 mg/mL.
With `N=C(N)Nc1nc(CSCCC(=N)NS(N)(=O)=O)cs1` [Famotidine, N-sulfamoyl-3-(2-guanidino-thiazole-4-yl-methylthio)-propionamidine], the “Hydrolysis of the amidino group” value in [7] is given as “highly capable of hydrolysis”. In the data set on histamine-H2 receptor, the “histamine-H2 receptor blocking effect” value is listed as “excellent”.
With `NC(N)=Nc1nc(CSCCC(N)=NS(N)(=O)=O)cs1` [Form "A", N-sulfamoyl-3-(2-guanidino-thiazole-4-yl-methylthio)-propionamidine], in data set [1], the “Rolling angle (basic angle of the cone)” value is on record as 41-42 °. The Deformity ratio in data set [2] came out at 1.40. This compound also registered a solubility at 5 h in “physchem” of 0.86 mg/mL (≈ 2550 µM). Further, the Thermodynamic stability result in [3] is “stabile”. Moreover, in [4], the “Electrostatic charging: amount of stuck material after knocking” value was determined as 0.5 g and the “Electrostatic charging: amount of stuck material without knocking” value came to 2.8 g. For the same compound, in [5], the Compaction ratio was 1.38, the “Bulk density with compaction” value turned out to be 960 g/L and the “Bulk density without compaction” value was found to be 695 g/L. In addition, in data set [6], the “Dynamic solubility at 2 min” value stood at 0.019 mg/mL, the “Dynamic solubility at 5 min” value amounted to 0.025 mg/mL, the “Dynamic solubility at 10 min” value worked out at 0.042 mg/mL and the “Dynamic solubility at 1 hour” value turned out to be 0.072 mg/mL. In addition, the “Handling and stability, comparison in words” value in data set [8] is reported as “unambiguously more advantageous”.

The values above are taken from patent US4894459A, “Process for the preparation of morphologically homogeneous forms of thiazole derivatives” (Richter Gedeon Vehyeszeti Gyar Rt., priority 1986, dated 1990).
